According to US6420399B1, “Topical ophthalmic mast cell stabilizers for treating allergic eye disease” (Alcon Manufacturing, Ltd., priority 1999, dated 2002):

Legend:
[1] = test system: human conjunctival mast cells; settings: purified preparations of human conjunctival mast cells; Yanni et al. 1996; cited from earlier work
[2] = Surface Activity Rating: change in surface pressure of SOPC monolayer in Langmuir trough; assay type: physicochemical; settings: initial surface pressure 30 mN/m, 24° C.
From the text: The Surface Activity Rating is obtained by determining the interaction of an amphipathic anti-allergy drug (“test compound”) in buffer alone with a phospholipid monolayer. Test compound/mast cell membrane interaction is mimicked in a phospholipid monolayer spread onto an aqueous buffer in a modified Langmuir trough. In this system, test compound-membrane interaction is quantified by determining the change in surface pressure (Δπ in mN/m) of a monomolecular film of 1-stearoyl-2-oleoyl-sn-glycero-3-phosphocholine (SOPC) spread at an initial surface pressure of 28-32 mN/m on an aqueous buffer sub-phase. The initial surface pressure of 28-32 mN/m is chosen because this pressure mimics that of most mammalian cell membranes. […]
Surface pressure is measured using an automated interfacial monitor-controller built around a Cahn 27 electrobalance equipped with a 24 ga. nichrome wire Wilhelmy probe. […]
The effect of test compound on surface pressure is determined by a continuous exchange of the aqueous phase with a concentrated solution of the test compound in buffer. […] The concentration of test compound in the aqueous phase is determined from the fraction of sub-phase volume exchanged and the concentration of the solute in the concentrated solution. […]

mast cells = settings: concentrations higher than those with antihistaminic / stabilizing activity; cited from earlier work

increase in surface pressure (Surface Activity Rating) ([2]; pH 7.5, concentration range of 0-3.5 mM) | increase in surface pressure (Surface Activity Rating) ([2]; pH 7.5, concentration in aqueous sub-phase increased from 0 to 5 mM) | SMILES | effect on histamine release as a function of concentration [1] | effect on histamine release from mast cells as a function of concentration (mast cells)
15 mN/m | – | CN1CCC(=C2c3ccccc3CC(=O)c3sccc32)CC1 [ketotifen, 4,9-dihydro-4-(1-methyl-4-piperidinyl-idene)-10H-benzo[4,5]cyclohepta-[1,2-b]thiophen-10-one] | biphasic behavior | –
– | – | O=C(O)c1cc(=O)c2c(OCC(O)COc3cccc4oc(C(=O)O)cc(=O)c34)cccc2o1 [cromolyn sodium] | – | biphasic behavior
– | 7.1 mN/m | CN(C)CC/C=C1/c2ccccc2COc2ccc(CC(=O)O)cc21 [olopatadine, Z-11-(3-dimethylaminopropylidene)-6,11-dihydrodibenz[b,e]oxepin-2-acetic acid] | – | does not provoke a release of histamine from mast cells
